Data taken from publication PMC8395125, “Conjugation with Phospholipids as a Modification Increasing Anticancer Activity of Phenolic Acids in Metastatic Melanoma—In Vitro and In Silico Studies” (International Journal of Molecular Sciences, 2021).

What was measured:
451-Lu cells [1] = test: Annexin-V/PI apoptosis assay, 451-Lu; assay type: cell-based, human; details: 100 µM, 72 h
Experimental: (§1) The studies of cell cycle, apoptosis and intracellular level of ROS were performed using the flow cytometry method. For the apoptosis assay, the cells were harvested and centrifuged (1500 rpm, 3 min). The apoptosis was measured using an Annexin-V apoptosis assay (BioLegend, San Diego, CA, USA). After supernatant removal, the cells were washed with PBS and centrifuged again. The pellets of cells were suspended in 50 μL of cold Annexin-V binding buffer and stained with FITC-labeled Annexin-V for 30 min at 37 °C in the dark. The Annexin-V binding buffer and propidium iodide (PI) solution (100 μg/mL; Sigma-Aldrich, Poznan, Poland) were then added and the samples were stored on ice till they were measured.
(§2) Cytometric analyses were performed immediately using an Aria III flow cytometer (Becton Dickinson, Franklin Lakes, NJ, USA) with FITC configuration (488 nm excitation; emission, LP mirror 503, BP filter 530/30) or with PE configuration (547 nm excitation; emission, 585 nm) and at least 10,000 cells were counted.

Me45 melanoma cells = test: Intracellular ROS formation (DCFH-DA, flow cytometry), Me45; assay type: cell-based, human; details: Me45, 72 h, DCF fluorescence
Experimental: (§3) The experiments on ROS content were performed after 72 h of incubation with the given compounds. The cells were harvested and centrifuged (1500 rpm, 3 min), washed with PBS and centrifuged again. The pellet was resuspended in culture medium and a cell-permeable non-fluorescent probe 2′,7′-dichlorofluorescin diacetate (DCFH-DA, Sigma-Aldrich, Poznan, Poland) at a final concentration of 30 µM was added. The samples were incubated in darkness for 30 min at 37 °C, then stored on ice till they were measured. DCFH-DA is hydrolyzed by cellular esterases into its polar form DCFH. Due to the intracellular ROS and other peroxides, DCFH undergoes oxidation and turns into highly fluorescent compond 2′,7′-dichlorofluorescein (DCF).
as §2

[2] = system: 1205-Lu metastatic melanoma cells; test: MTT cell viability assay, 1205-Lu; assay type: cell-based, human; details: 72 h, 50 to 400 μM; for IC50: Homo sapiens, 1205Lu, MTT, mean ± SD; for toxicity / cell growth inhibition: 1205-Lu
Description: (§4) Three malignant melanoma cell lines (Me45, 1205-Lu and 451-Lu; obtained from the collection of the Centre of Oncology, Gliwice, Poland), neonatal human dermal fibroblast (NHDF; Lonza, Basel, Switzerland) and human colorectal adenocarcinoma cells (Caco-2; ATCC, Manassas, VA, USA) were used in the studies. The human malignant melanoma (Me45) cell line (derived from a lymph node metastasis of skin melanoma) was established in 1997 at the Radiobiology Department of the Centre of Oncology in Gliwice. 1205-Lu and 451-Lu cell lines were derived from human melanoma metastases to lungs of immunodeficient mice. The cells were cultivated in the medium DMEM-F12 (PAA, Warsaw, Poland) supplemented with 10% (for Me45, 1205-Lu and 451-Lu and NHDF) or 20% (Caco-2) of fetal bovine serum (FBS, Eurx, Gdansk, Poland). In addition, medium for Caco-2 cells contained Non-essential Amino Acid Solution (1×) (Sigma-Aldrich, Poznan, Poland). All cell lines were grown in the presence of 1% of antibiotics (10,000 μg/mL streptomycin and 10,000 units/mL penicillin; Sigma-Aldrich, Poznan, Poland), at 37 °C in humidified atmosphere with 5% CO2 under standard conditions. All experimental procedures were carried out in log-phase of cell growth. During some experiments melanoma cells were irradiated with X-rays at the dose of 2 Gy at the 24th hour of the incubation. Ionizing radiation was applied using a laboratory X-Cell 140 irradiator (Kubtec, Bridgeport, CT, USA).
(§5) Cells (Me45, 1205-Lu, 451-Lu and NHDF) were seeded on 96-well plates (20,000 cells/mL) 24 h before the experiment. One day later, fresh media containing tested compounds were added. The appropriate control, containing ethanol:DMSO (v/v 1:1) in fresh medium, was also prepared. The plates were incubated for a given time (72 h for Me45, 1205-Lu, 451-Lu and NHDF; 2 h for Caco-2) at 37 °C in humidified atmosphere with 5% CO2. After incubation, the medium was removed and cells were washed with physiological saline (PBS; PAA, Warsaw, Poland). In the next step, the cells were incubated with MTT (3-[4,5-dimethylthiazol-2-yl]-2,5-diphenyltetrazolium bromide, Sigma-Aldrich, Poznan, Poland) (solution of 0.5 mg/mL in RPMI 1640 without phenol red) for 2 h. Then, the MTT solution was removed and the formazan crystals were dissolved in the mixture isopropanol:HCl (v/v 1:0.04; both purchased from Sigma-Aldrich, Poznan, Poland). The absorbance of the obtained product was read at 570 nm using a microplate reader (Epoch; BioTek, Winooski, VT, USA). Survival rate was expressed as the percentage of cell survival and calculated from the ratio (A570 of treated cells/A570 of control cells) × 100%. The experiments were repeated three times.

1205-Lu cells [3] = test: Annexin-V/PI apoptosis assay, 1205-Lu; assay type: cell-based, human; details: 100 µM; for fraction of cells in the early stage of apoptosis: 48 h of incubation, without irradiation; for fraction of necrotic cells / induction of apoptosis: 72 h
Experimental: as §1, §2

451-Lu cells [4] = test: Cell cycle analysis (PI, flow cytometry), 451-Lu; assay type: cell-based, human; details: 100 µM, 72 h, vs untreated control
Experimental: (§6) For cell cycle analysis, harvested cells were centrifuged (1500 rpm, 3 min). After supernatant removal, cells were fixed with a hypotonic buffer, containing PI at 100 µg/mL in PBS, 5 mg/l of citric acid, 1:9 Triton-X solution, 100 µg/mL of RNase in PBS (Sigma-Aldrich, Poznan, Poland). Probes were incubated for 20 min at room temperature in the dark, then stored on ice till they were measured.
as §2

[5] = system: normal skin fibroblasts NHDF; test: MTT cell viability assay, NHDF; assay type: cell-based, human; details: 72 h, 50 to 400 μM; for IC50: Homo sapiens, MTT, mean ± SD
Description: as §4, §5

Me45 cells [6] = test: Annexin-V/PI apoptosis assay, Me45; assay type: cell-based, human; details: Me45, 100 µM, 72 h
Experimental: as §1, §2

1205-Lu melanoma cells = test: Intracellular ROS formation (DCFH-DA, flow cytometry), 1205-Lu; assay type: cell-based, human; details: 72 h, DCF fluorescence
Experimental: as §3, §2

colon cancer cells = system: colon cancer cells; parameters: method as in PMID 30104549; details: cited from earlier work
[7] = system: Me45 metastatic melanoma cells; test: MTT cell viability assay, Me45; assay type: cell-based, human; details: 72 h; for IC50: Homo sapiens, MTT, 50 to 400 μM, mean ± SD; for toxicity / cell growth inhibition: Me45, 50 to 400 μM
Description: as §4, §5

Me45 cells [8] = test: Cell cycle analysis (PI, flow cytometry), Me45; assay type: cell-based, human; details: Me45, 100 µM, 72 h, vs untreated control
Experimental: as §6, §2

[9] = system: 451-Lu metastatic melanoma cells; test: MTT cell viability assay, 451-Lu; assay type: cell-based, human; details: 72 h, 50 to 400 μM; for IC50: Homo sapiens, 451Lu, MTT, mean ± SD; for toxicity / cell growth inhibition: 451-Lu
Description: as §4, §5

451-Lu melanoma cells = test: Intracellular ROS formation (DCFH-DA, flow cytometry), 451-Lu; assay type: cell-based, human; details: 72 h, DCF fluorescence
Experimental: as §3, §2

1205-Lu cells [10] = test: Pro-apoptotic activity in combination with ionizing radiation (2 Gy), 1205-Lu; assay type: cell-based, human; details: 100 µM, 48 h, X-rays 2 Gy at the 24th hour
Experimental: In the next step, pilot experiments on the pro-apoptotic activity of phenolic acid-PC conjugates in combination with ionizing radiation (IR) were performed. […] The time of incubation with a given compound was reduced to 48 h. X-rays at the dose of 2 Gy were applied at the 24th hour of incubation.
Three malignant melanoma cell lines (Me45, 1205-Lu and 451-Lu; obtained from the collection of the Centre of Oncology, Gliwice, Poland), neonatal human dermal fibroblast (NHDF; Lonza, Basel, Switzerland) and human colorectal adenocarcinoma cells (Caco-2; ATCC, Manassas, VA, USA) were used in the studies. […]
The studies of cell cycle, apoptosis and intracellular level of ROS were performed using the flow cytometry method. […] The apoptosis was measured using an Annexin-V apoptosis assay (BioLegend, San Diego, CA, USA). […] The Annexin-V binding buffer and propidium iodide (PI) solution (100 μg/mL; Sigma-Aldrich, Poznan, Poland) were then added and the samples were stored on ice till they were measured.
as §2

SMILES | induction of apoptosis (451-Lu cells [1]) | IC50 [2] [µM] | induction of apoptosis (1205-Lu cells [3]) | cell cycle phase distribution (451-Lu cells [4]) | IC50 [5] [µM] | induction of apoptosis (Me45 cells [6]) | IC50 [7] [µM] | cell cycle phase distribution (Me45 cells [8]) | IC50 [9] [µM] | further results
COc1ccc(C(=O)OC[C@H](COP(=O)([O-])OCC[N+](C)(C)C)OC(=O)c2ccc(OC)c(OC)c2)cc1OC [3b, 1,2-diveratroyl-sn-glycero-3-phosphocholine] | significant potency to induce apoptosis | 153 ± 9.5 | significant potency to induce apoptosis | increased the fraction of melanoma cells in the sub-G1 phase | 168 ± 11.3 | significant potency to induce apoptosis | 84.4 ± 14 | increased the fraction of Me45 cells in the sub-G1 as well as G2/M phases | 48.3 ± 5.5 | fraction of necrotic cells (451-Lu cells [1]): significant increase in the fraction of necrotic cells; reactive oxygen species formation (antioxidant activity, words) (Me45 melanoma cells): highest ability to reduce ROS formation; fraction of cells in the early stage of apoptosis (1205-Lu cells [3]): ~ 22%; fraction of necrotic cells (1205-Lu cells [3]): significant increase in the fraction of necrotic cells; reactive oxygen species formation (antioxidant activity, words) (1205-Lu melanoma cells): highest ability to reduce ROS formation; overcoming of doxorubicin-resistance (colon cancer cells): partially overcome doxorubicin-resistance; reactive oxygen species formation (antioxidant activity, words) (451-Lu melanoma cells): highest ability to reduce ROS formation
CCCCCCCCCCCCCCCC(=O)OC[C@H](COP(=O)([O-])OCC[N+](C)(C)C)OC(=O)c1ccc(OC)c(OC)c1 [5b, 1-palmitoyl-2-veratroyl-sn-glycero-3-phosphocholine] |  | 102 ± 4.1 |  | increased the fraction of melanoma cells in the sub-G1 phase | 185 ± 13.7 | significantly higher fractions of Me45 cells in the early and late stages of apoptosis | 109 ± 7.6 | Increased fraction of Me45 cells in G2/M phase | 137 ± 7.7 | 
COc1ccc(C(=O)OC[C@H](COP(=O)([O-])OCC[N+](C)(C)C)OC(=O)c2ccc(OC)cc2)cc1 [3a, 1,2-dianisoyl-sn-glycero-3-phosphocholine] | significant potency to induce apoptosis | 82 ± 10.5 | significant potency to induce apoptosis | increased the fraction of melanoma cells in the sub-G1 phase | 238 ± 17.8 | significant potency to induce apoptosis | 111 ± 4.5 |  | 47.5 ± 2.7 | fraction of necrotic cells (451-Lu cells [1]): significant increase in the fraction of necrotic cells; reactive oxygen species formation (antioxidant activity, words) (Me45 melanoma cells): strongest antioxidant; fraction of cells in the early stage of apoptosis (1205-Lu cells [3]): ~ 17%; fraction of necrotic cells (1205-Lu cells [3]): significant increase in the fraction of necrotic cells; reactive oxygen species formation (antioxidant activity, words) (1205-Lu melanoma cells): strongest antioxidant; reactive oxygen species formation (antioxidant activity, words) (451-Lu melanoma cells): strongest antioxidant
COc1ccc(C(=O)O)cc1OC [1b, 3,4-dimethoxybenzoic acid, reference compound] | no ability to induce apoptosis |  | no ability to induce apoptosis |  |  | no ability to induce apoptosis |  |  |  | toxicity / cell growth inhibition [2]: non-toxic; toxicity / cell growth inhibition [5]: non-toxic; toxicity / cell growth inhibition [7]: non-toxic; toxicity / cell growth inhibition [9]: non-toxic
COc1ccc(C(=O)O)cc1 [1a, 4-methoxybenzoic acid, reference compound] | no ability to induce apoptosis |  | no ability to induce apoptosis |  |  | no ability to induce apoptosis |  |  |  | toxicity / cell growth inhibition [2]: non-toxic; toxicity / cell growth inhibition [5]: non-toxic; toxicity / cell growth inhibition [7]: non-toxic; toxicity / cell growth inhibition [9]: non-toxic
CCCCCCCCCCCCCCCC(=O)O[C@H](COC(=O)c1ccc(OC)c(OC)c1)COP(=O)([O-])OCC[N+](C)(C)C [8b, 1-veratroyl-2-palmitoyl-sn-glycero-3-phosphocholine] |  | 73.2 ± 9.3 |  |  | 150 ± 17.9 |  | 126 ± 3.7 | Increased fraction of Me45 cells in G2/M phase | 82.2 ± 14.3 | pro-apoptotic effect in combination with ionizing radiation (1205-Lu cells [10]): most effective combinations
CCCCCCCCCCCCCCCC(=O)O[C@H](COC(=O)c1ccc(OC)cc1)COP(=O)([O-])OCC[N+](C)(C)C [8a, 1-anisoyl-2-palmitoyl-sn-glycero-3-phosphocholine] |  | 62.2 ± 7.1 |  |  | 198 ± 20.8 |  | 131 ± 9.9 |  | 54.1 ± 6.7 | pro-apoptotic effect in combination with ionizing radiation (1205-Lu cells [10]): most effective combinations
CCCCCCCCCCCCCCCC(=O)OC[C@H](COP(=O)([O-])OCC[N+](C)(C)C)OC(=O)c1ccc(OC)cc1 [5a, 1-palmitoyl-2-anisoyl-sn-glycero-3-phosphocholine] | slightly increased | 71.3 ± 7.7 |  |  | 249 ± 20.9 | slightly increased | 122 ± 10 |  | 97.7 ± 8 | 
